The text below walks through data of ChEMBL document CHEMBL1139948, “Design and synthesis of novel hydantoin-containing melanin-concentrating hormone receptor antagonists” (Bioorg Med Chem Lett, 2007).

Data set [1] deals with Melanin-concentrating hormone receptor 1 (Homo sapiens, UniProt Q99705). In words: Displacement of [125I][Phe13, Tyr19]MCH from human recombinant MCHR1 expressed in CHO cells. Format: cell-based.
The target in data set [2] is 5-hydroxytryptamine receptor 2A (Homo sapiens, UniProt P28223). In words: Binding affinity to 5HT2A receptor.
In data set [3] the target is T1, 5-hydroxytryptamine receptor 2C (Homo sapiens, UniProt P28335).
T1 sequence (P28335 whole entry): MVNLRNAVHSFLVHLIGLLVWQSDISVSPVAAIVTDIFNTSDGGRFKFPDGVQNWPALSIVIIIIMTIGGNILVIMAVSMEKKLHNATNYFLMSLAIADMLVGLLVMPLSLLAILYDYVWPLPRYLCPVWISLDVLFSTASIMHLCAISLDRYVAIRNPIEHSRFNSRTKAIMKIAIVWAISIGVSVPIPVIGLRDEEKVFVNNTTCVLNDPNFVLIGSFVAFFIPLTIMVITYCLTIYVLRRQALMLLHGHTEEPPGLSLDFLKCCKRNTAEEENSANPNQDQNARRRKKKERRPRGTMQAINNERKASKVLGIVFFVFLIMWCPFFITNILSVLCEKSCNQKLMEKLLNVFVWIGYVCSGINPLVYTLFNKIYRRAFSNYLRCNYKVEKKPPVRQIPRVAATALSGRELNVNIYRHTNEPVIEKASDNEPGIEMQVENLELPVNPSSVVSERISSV
In words: Binding affinity to 5HT2C receptor.

In data set [4] the target is Melanin-concentrating hormone receptor 2 (Homo sapiens, UniProt Q969V1). The data set can be described thus: Binding affinity to MCHR2.
A short description of data set [5]: Binding affinity to L-verapamil site of calcium channel. Details: species or system Homo sapiens.
A short description of data set [6]: Permeability across human Caco-2 cell membrane. Format: ADME, cell-based. To be noted: read-out: permeability. (In general: Caco-2 monolayers are a common model of the intestinal barrier.)
The test system of data set [7] is Mus musculus. The data set can be described thus: Reduction of cumulative food intake in over-night fasted mouse at 30 mg/kg, ip after 3 hrs relative to control. Format: functional. To be noted: route intraperitoneal. Details: scale not given: the % may be the effect or the level left.
In data set [8] the test system is Mus musculus. The data set can be described thus: Antidepressant effect in mouse at 30 mg/kg, ip assessed as reduction in immobility duration after 30 mins by forced swimming test relative to control. To be noted: route intraperitoneal. Details: scale not given: the % may be the effect or the level left. Format: functional.
A further data set concerns the target hERG (KCNH2) (Homo sapiens, UniProt Q12809). In words: Inhibition of hERG-mediated current amplitude at 1 uM. Format: toxicity. A general note: Block of hERG is tested as a sign of cardiac risk.
Data set [9] deals with Mus musculus. In words: Toxicity in mouse at 10 to 100 mg/kg, ip by Irwins method. The data set is classed as organism-based. Details: dose 10-100 mg/kg, route intraperitoneal. To be noted: in vivo.
Data set [10] deals with Mus musculus. The data set can be described thus: Antidepressant effect in mouse at 10 mg/kg, ip assessed as reduction in immobility duration after 30 mins by forced swimming test relative to control. The data set is classed as functional. Details: scale not given: the % may be the effect or the level left. To be noted: route intraperitoneal.
Data set [11] relates to Mus musculus. In words: Reduction of cumulative food intake in over-night fasted mouse at 10 mg/kg, ip after 3 hrs relative to control. The data set is classed as functional, organism-based. Details: dose 10 mg/kg.
The target of data set [12] is Muscarinic acetylcholine receptor M4 (Homo sapiens) (UniProt P08173). The data set can be described thus: Binding affinity to muscarinic M4 receptor.

Active and inactive are the calls of the source. The calls are words filed in the database; no cut-off is given here.

Chain of Melanin-concentrating hormone receptor 1 (Q99705 whole entry): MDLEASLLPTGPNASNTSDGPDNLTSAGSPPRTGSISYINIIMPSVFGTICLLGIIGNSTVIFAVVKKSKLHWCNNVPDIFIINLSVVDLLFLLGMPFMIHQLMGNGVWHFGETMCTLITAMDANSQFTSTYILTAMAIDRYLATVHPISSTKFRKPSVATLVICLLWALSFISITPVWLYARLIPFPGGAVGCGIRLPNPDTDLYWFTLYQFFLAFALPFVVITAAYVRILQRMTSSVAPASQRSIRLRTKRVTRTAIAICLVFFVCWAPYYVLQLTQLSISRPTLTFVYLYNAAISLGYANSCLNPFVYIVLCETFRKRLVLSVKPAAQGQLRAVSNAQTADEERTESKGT
Chain of 5-hydroxytryptamine receptor 2A (P28223 whole entry): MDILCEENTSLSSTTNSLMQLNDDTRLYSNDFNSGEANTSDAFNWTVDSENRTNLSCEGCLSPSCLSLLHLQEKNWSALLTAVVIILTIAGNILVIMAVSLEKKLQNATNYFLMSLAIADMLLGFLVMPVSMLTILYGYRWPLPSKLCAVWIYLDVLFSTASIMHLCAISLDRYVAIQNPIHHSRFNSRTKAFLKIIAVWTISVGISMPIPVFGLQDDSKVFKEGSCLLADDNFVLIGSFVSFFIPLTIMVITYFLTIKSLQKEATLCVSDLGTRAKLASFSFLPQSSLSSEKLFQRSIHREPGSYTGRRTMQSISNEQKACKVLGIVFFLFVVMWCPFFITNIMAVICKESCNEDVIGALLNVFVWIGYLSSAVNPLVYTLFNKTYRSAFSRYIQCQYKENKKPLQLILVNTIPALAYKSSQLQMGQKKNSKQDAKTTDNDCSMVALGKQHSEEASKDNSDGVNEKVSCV
Chain of Melanin-concentrating hormone receptor 2 (Q969V1 whole entry): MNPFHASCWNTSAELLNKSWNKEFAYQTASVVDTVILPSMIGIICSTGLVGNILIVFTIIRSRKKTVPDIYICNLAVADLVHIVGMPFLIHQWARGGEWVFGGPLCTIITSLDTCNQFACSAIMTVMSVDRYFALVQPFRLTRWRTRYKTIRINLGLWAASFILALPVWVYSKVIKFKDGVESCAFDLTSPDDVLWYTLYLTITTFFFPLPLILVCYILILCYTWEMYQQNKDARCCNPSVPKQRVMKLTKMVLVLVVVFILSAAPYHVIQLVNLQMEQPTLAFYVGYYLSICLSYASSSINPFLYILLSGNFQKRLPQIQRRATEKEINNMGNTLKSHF
Chain of hERG (KCNH2) (Q12809 whole entry): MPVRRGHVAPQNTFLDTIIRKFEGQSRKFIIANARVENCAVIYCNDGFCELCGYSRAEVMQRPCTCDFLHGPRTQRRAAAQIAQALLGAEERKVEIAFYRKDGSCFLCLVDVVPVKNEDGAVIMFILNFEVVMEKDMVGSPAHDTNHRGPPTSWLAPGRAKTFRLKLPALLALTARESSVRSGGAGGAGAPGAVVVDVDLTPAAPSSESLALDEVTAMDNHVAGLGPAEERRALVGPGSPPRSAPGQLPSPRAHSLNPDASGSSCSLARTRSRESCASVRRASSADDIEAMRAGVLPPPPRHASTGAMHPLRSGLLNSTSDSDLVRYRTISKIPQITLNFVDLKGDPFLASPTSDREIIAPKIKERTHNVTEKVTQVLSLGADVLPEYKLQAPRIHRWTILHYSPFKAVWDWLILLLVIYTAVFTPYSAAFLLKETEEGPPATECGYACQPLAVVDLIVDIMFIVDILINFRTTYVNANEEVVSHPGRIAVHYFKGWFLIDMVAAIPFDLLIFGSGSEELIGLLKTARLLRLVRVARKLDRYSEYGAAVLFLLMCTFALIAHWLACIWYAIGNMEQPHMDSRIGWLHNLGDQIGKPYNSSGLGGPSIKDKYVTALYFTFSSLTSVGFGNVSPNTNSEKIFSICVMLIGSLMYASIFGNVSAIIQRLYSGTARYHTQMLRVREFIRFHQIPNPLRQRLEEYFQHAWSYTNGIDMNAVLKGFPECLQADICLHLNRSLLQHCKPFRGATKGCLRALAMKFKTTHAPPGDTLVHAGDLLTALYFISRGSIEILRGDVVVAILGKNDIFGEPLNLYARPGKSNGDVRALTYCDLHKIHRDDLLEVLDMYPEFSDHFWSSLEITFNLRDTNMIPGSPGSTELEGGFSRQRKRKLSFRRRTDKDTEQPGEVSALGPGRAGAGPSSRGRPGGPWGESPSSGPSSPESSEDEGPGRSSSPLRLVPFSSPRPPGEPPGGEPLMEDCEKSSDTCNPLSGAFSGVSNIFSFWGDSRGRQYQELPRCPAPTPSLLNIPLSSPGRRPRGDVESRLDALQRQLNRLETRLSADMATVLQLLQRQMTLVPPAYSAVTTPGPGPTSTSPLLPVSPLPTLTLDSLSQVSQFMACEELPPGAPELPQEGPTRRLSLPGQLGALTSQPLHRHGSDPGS

Turning to `CN(C)Cc1ccc(/C=C2\NC(=O)N(c3ccc(Oc4ccccc4)cc3)C2=O)cc1`, the Ki in data set [1] stood at 341 nM.
Regarding `O=C1N/C(=C\c2ccc(CN3CCCC3)cc2)C(=O)N1c1ccc(Oc2ccccc2)cc1`, the Ki is 220 nM in data set [1]; more than 5000 nM in [2]; more than 10000 nM in data set [3]; more than 10 µM in data set [4]; 330 nM in [5]. Moreover, in data set [6], the Papp is more than 6 ×10⁻⁶ cm/s. Also, the Activity is given as 41% in the data set on Mus musculus [7], -57% in the data set on Mus musculus [8] and “Non-toxic” with Mus musculus [9]. Also, 1 µM produced 73% inhibition against hERG (KCNH2).
Take `COc1cc(NC(=O)Nc2ccc(Oc3ccccc3)cc2)ccc1OCCN1CCCC1`: the Ki in [1] was determined as 101 nM.
As for `CN(C)CCCN1c2ccccc2CCc2ccccc21` [IMIPRAMINE], in the data set with Mus musculus [10], the Activity was -58%.
With `CN(C)CCNCc1ccc(/C=C2\NC(=O)N(c3ccc(Oc4ccccc4)cc3)C2=O)cc1`, the Ki in [1] worked out at 707 nM.
Still for that read-out and setting: the result for `COc1cc(N2CC(=O)N(c3ccc(-c4ccccc4)cc3)C2=O)ccc1OCCN1CCCC1` reads 415 nM.
As to `COc1cc(NC(=O)c2ccc(-c3ccccc3)cc2)ccc1OCCN1CCCC1`, in data set [1], the inhibitory constant (Ki) stood at 25 nM.
For the molecule `CC(C)CC(N(C)C)C1(c2ccc(Cl)cc2)CCC1` (centres undefined), the result in the data set with Mus musculus [11] was Active.
Regarding `CC(=O)N1CCN(Cc2ccc(/C=C3\NC(=O)N(c4ccc(Oc5ccccc5)cc4)C3=O)cc2)CC1`, in [1], the Ki amounted to 2060 nM.
In the case of `COc1cc(N2C(=O)CN(c3ccc(Oc4ccccc4)cc3)C2=O)ccc1OCCN1CCCC1`, the Ki in [1] was 365 nM.
On to `O=C1N/C(=C\c2ccc(CN3CCOCC3)cc2)C(=O)N1c1ccc(Oc2ccccc2)cc1`, for which, in [1], the Ki was more than 5000 nM.
As for `O=C1N/C(=C\c2ccc(CN3CCN(c4ccccc4)CC3)cc2)C(=O)N1c1ccc(Oc2ccccc2)cc1`, the Ki in [1] was more than 5000 nM.
Consider `O=C1N/C(=C\c2ccc(CN3CCCCCC3)cc2)C(=O)N1c1ccc(Oc2ccccc2)cc1`, for which the Ki in data set [1] came out at 357 nM.
For the molecule `O=C1N/C(=C\c2ccc(CN3CCC(O)C3)cc2)C(=O)N1c1ccc(Oc2ccccc2)cc1` (racemic), the Ki in [1] worked out at 176 nM. Besides, the Activity with Mus musculus [7] is reported as 47%.
`CN(C)CC1CCc2cc(NC(=O)c3ccc(-c4ccc(F)cc4)cc3)ccc2C1` (centres undefined): the Ki in [1] worked out at 38 nM.
For the molecule `COc1cc(NC(=S)Nc2ccc(Oc3ccccc3)cc2)ccc1OCCN1CCCC1`, the Ki in data set [1] turned out to be 1090 nM.
For `COc1cc(N2CC(=O)N(c3ccc(Oc4ccccc4)cc3)C2=O)ccc1OCCN1CCCC1`, the Ki in data set [1] amounted to 164 nM; in [2], 330 nM; in [3] it was 880 nM; in data set [12], 370 nM. Moreover, in the data set with Mus musculus [7], the Activity came out at 51%.
With `O=C1N/C(=C\c2ccc(CN3CCN(Cc4ccccc4)CC3)cc2)C(=O)N1c1ccc(Oc2ccccc2)cc1`, the Ki in [1] is more than 5000 nM.
Take `COc1cc(NC(=O)Nc2ccc(-c3ccccc3)cc2)ccc1OCCN1CCCC1`: in [1], the Ki was found to be 260 nM.
Turning to `O=C1N/C(=C\c2ccc(CN3CCCCC3)cc2)C(=O)N1c1ccc(Oc2ccccc2)cc1`, the Ki in [1] is more than 5000 nM.
For `COc1cc(N2C(=O)CN(c3ccc(-c4ccccc4)cc3)C2=O)ccc1OCCN1CCCC1`, the Ki in data set [1] is more than 5000 nM.
With `O=C1N/C(=C\c2ccc(CNCc3ccccc3)cc2)C(=O)N1c1ccc(Oc2ccccc2)cc1`, the Ki in data set [1] is more than 5000 nM.
`COc1cc(Nc2nc(-c3ccc(Oc4ccccc4)cc3)cs2)ccc1OCCN1CCCC1`: the Ki in data set [1] amounted to 1000 nM.
For the molecule `O=C1N/C(=C\c2ccc(CNC3CCCC3)cc2)C(=O)N1c1ccc(Oc2ccccc2)cc1`, the inhibition constant (Ki) in data set [1] is more than 5000 nM.
In the case of `COc1cc(NC(=O)c2ccc(Oc3ccccc3)cc2)ccc1OCCN1CCCC1`, in data set [1], the Ki stood at 82 nM.

By Ki is commonly meant a measure of affinity in units of concentration, obtained from inhibition or displacement. Broadly, the inhibition is the relative decrease from the control value, in per cent.
